Test results published in PMC12654037, “Norditerpene Natural Products from Subterranean Fungi with Anti-Parasitic Activity” (Microorganisms, 2025).

Assays:
P. falciparum 3D7 = assay: Plasmodium falciparum growth inhibition assay (SYBR Green I), 3D7; conditions: 3D7, 72 h, read-out: EC50 3D7(M)
Protocol: (§2) Plasmodium falciparum growth inhibition assay: Antiplasmodial EC50 results were determined using a fluorescence-based SYBR Green I assay performed using asynchronous cultures [30, 35]. […] Plates were subsequently frozen at −80 °C to facilitate lysis. […] Relative fluorescence units (RFUs) were normalized based on chloroquine-treated and no treatment controls. Serial dilutions of compounds were prepared in RPMI with final assay conditions of ≤0.2% DMSO. Each assay was conducted in triplicate with three biological replicates.

P. falciparum line Dd2 = assay: Plasmodium falciparum growth inhibition assay (SYBR Green I), Dd2; conditions: for EC50: Plasmodium falciparum, DD2, 72 h, read-out: EC50 Dd2 (M)
Protocol: as §2

HCT-8 cells = assay: HCT-8 cytotoxicity assay; type: cell-based
Protocol: (§1) HCT-8 and HFF cytotoxicity assays: Cytotoxicity of the compounds was determined against both confluent (the conditions of the infection assays) and growing HCT-8 and HFF host cells, as previously described. Cells were seeded into white-sided, clear-bottom 96-well plates and grown to either 40% or 100% confluency. Compounds were added to cells at various concentrations up to 100 µM in a final DMSO concentration of 0.5%. DMSO was run in parallel as a vehicle control. After 48 h, the viability of the cells was determined by either quantification of cellular ATP (Cell-Titer Glo cell viability assay; Promega, Madison WI, USA) or by MTT assay. Viability was determined 24 h after compound addition to HFF cells or 48 h after compound addition to HCT-8 cells or HepG2 cells. The percent cell growth was then calculated with the following formula: % Cell Growth = [RLUcompound/RLUDMSO] × 100. Samples were run in triplicate with two to three biological replicates.

HuF fibroblast cell line = conditions: sub-confluent; ref Rusman et al. 2020 [25]; cited from earlier work
HepG2 human hepatocytes = assay: HepG2 cytotoxicity assay (MTS); type: cell-based; conditions: 48 h, mean +/- SD
Protocol: HepG2 cytotoxicity assay: Mammalian cell cytotoxicity was assessed in HepG2 human hepatocytes using an MTS 3-(4,5-dimethylthiazol-2-yl)-5-(3-carboxymethoxyphenyl)-2-(4-sulfophenyl)-2H-tetrazolium)-based cytotoxicity assay. For cytotoxicity testing, ∼2250 cells were seeded into each well of a 384-well microtiter plate and incubated for 24 h. Serial dilutions of the compounds were added in triplicate starting at 25 μM. Cells were further incubated for an additional 48 h at 37 °C in an atmosphere containing 5% CO2. Zero-growth control wells were incubated with 5% Triton X-100 for 5 min prior to MTS addition. Following the addition of MTS to all wells, the plates were incubated for an additional 4 h under the same environmental conditions before taking absorbance measurements. Absorbance values were recorded at 490 nm using a Synergy Neo2 multimode reader (BioTek), and values were normalized based on Triton X-100-lysed and no treatment controls. Samples were run in triplicate in each assay, and the experiments were repeated three times.

HFF cells = assay: HFF cytotoxicity assay; type: cell-based; conditions: confluent
Protocol: as §1

C. parvum = C. parvum growth inhibition assay (Cp-NLuc-infected HCT-8 cells); type: cell-based, Cryptosporidium parvum; conditions: for EC50: Cryptosporidium parvum, HCT-8, intracellular nanoluciferase-expressing C. parvum in vitro, Figure 1 table, read-out: EC50 (μM), C. parvum; for parasite inhibition in pilot screen: CpNLuc-infected HCT-8 cells, initial dose 5 µg/mL
Protocol: C. parvum growth inhibition assays: The in vitro growth inhibition assay of C. parvum has been previously described. Briefly, clear-bottom, white-sided 96 well plates were seeded with HCT-8 cells. Once the cells reached between 50% and 75% confluency, they were infected with Cp-NLuc oocysts (10,000/well) in complete media containing 0.6% taurocholate. At 24 h post-infection (hpi), the infected cells were treated with compounds at various concentrations. DMSO was used as a vehicle control in parallel. Parasite growth was determined at 72 hpi by measuring relative luminescence units (RLUs) using Promega Nano-Glo substrate (Promega, Madison, WI, USA) and a SpectraMax® L Microplate Reader (Molecular Devices, San Jose, CA, USA). The percent inhibition of parasite growth was calculated as [(RLUDMSO − RLUcompound)/RLUDMSO] × 100.

C. parvum sporozoites = assay: C. parvum invasion inhibition assay; type: cell-based, Cryptosporidium parvum; conditions: 100 nM, 3 h infection
Protocol: C. parvum excystation and invasion assays: Oocyst excystation rates in the presence of compounds were determined as previously described. The C. parvum invasion inhibition assays were conducted in two formats. In the first format, described previously, HCT-8 cells were seeded on glass slides (CELLTREAT Scientific Product, Pepperell, MA, USA) and allowed to grow to confluence. Oidiolactone A was added to the cells for one hour. TrtE and DMSO were run in parallel as positive and negative controls, respectively. The cell monolayers were then infected with 1.2 × 10^6 wild-type C. parvum oocysts. After 3 h of incubation at 37 °C, the slides were washed five times with 111 mM D-galactose, fixed with 4% paraformaldehyde, and permeabilized with 0.25% Triton-X. C. parvum sporozoites were detected with rabbit anti-gp40 [39] and Alexa Fluor 594 goat anti-rabbit antibodies. The HCT-8 cell nuclei were stained with 0.09 mM Hoechst. Slides were coded to enable unbiased counting, and sporozoites from at least 10 randomly selected fields were counted in each sample at 100× magnification (Zeiss® Axioscope 5). The percentage of invaded parasites was determined using the following equation: % Invaded parasites = [parasitescompound/parasitesDMSO] × 100. This experiment was run in duplicate with two biological replicates. […]

SMILES	EC50 (P. falciparum 3D7) [M]	SI: selectivity index=EC50 HepG2/ EC50 compound (P. falciparum line Dd2)	EC50 (P. falciparum line Dd2) [M]	TC50 HCT-8 (confluent) (HCT-8 cells) [µM]	TC50 HCT-8 (sub-confluent) (HCT-8 cells) [µM]	TC50 HuF (sub-confluent) (HuF fibroblast cell line) [µM]	TC50 HepG2 (HepG2 human hepatocytes) [µM]	TC50 HFF (confluent) (HFF cells) [µM]	EC50 (C. parvum) [µM]	parasite inhibition in pilot screen (C. parvum)	effect on parasite invasion (positive control) (C. parvum sporozoites)
C[C@@]12CCC[C@]3(C)C4=CC(=O)OC[C@]45O[C@@H]5[C@@H](OC1=O)[C@@H]23 [compound 2, oidiolactone C]	2.78e-06 ± 3.97e-07	7	2.49e-06 ± 1.98e-07	> 30	1.35 ± 0.2	> 30	17.1 ± 0.821	> 30	1.8	–	–
C[C@@]12CCC[C@]3(C)C4=CC(=O)O[C@@H](O)[C@]45O[C@@H]5[C@@H](OC1=O)[C@@H]23 [compound 3, oidiolactone D]	> 5e-06	–	> 5e-06	–	–	> 30	> 25	–	–	–	–
C[C@]12C(=O)O[C@@H]3[C@H]4O[C@@]45C(=CC(=O)O[C@H]5O)[C@@](C)(CC[C@H]1O)[C@@H]32 [compound 4, oidiolactone G]	> 5e-06	–	> 5e-06	–	–	> 30	> 25	–	–	eliminates activity	–
COC(=O)/C=C1/[C@]2(C(OC)OC)O[C@@H]2[C@H]2OC(=O)[C@@]3(C)CCC[C@@]1(C)[C@@H]23 [compound 5, oidiolactone H]	–	–	–	–	–	> 30	–	–	–	abolishes inhibitory activity	–
COC(=O)/C=C1/[C@]2(C=O)O[C@@H]2[C@H]2OC(=O)[C@@]3(C)CCC[C@@]1(C)[C@@H]23 [compound 6, oidiolactone I]	3.65e-06 ± 5.96e-07	–	> 4.99e-06	> 30	4.8 ± 0.7	> 30	> 25	> 30	7.8	–	–
CO[C@H]1OC(=O)C=C2C1=C[C@H]1OC(=O)[C@@]3(C)[C@H](O)CC[C@@]2(C)[C@@H]13 [compound 8, oidiolactone J]	> 5e-06	–	> 5e-06	> 30	> 30	> 30	> 25	> 30	7.8	–	–
C[C@]12C(=O)O[C@@H]3C=C4C(=CC(=O)O[C@@H]4O)[C@@](C)(CC[C@H]1O)[C@@H]32 [compound 9, oidiolactone K]	> 5e-06	–	> 5e-06	–	–	> 30	> 25	–	–	–	–
C[C@@]12CCC[C@]3(C)C4=CC(=O)O[C@H](O)C4=C[C@@H](OC1=O)[C@@H]23 [compound 10, yukonin]	–	–	–	> 30	2.5 ± 0.3	–	–	> 30	1.09	–	–
C[C@]1(C(=O)O)CCC[C@]2(C)C3=CC(=O)OCC3=CC[C@@H]12 [compound 11, oidiodendronic acid]	> 5e-06	–	> 5e-06	> 30	19.7 ± 4.8	> 30	> 25	> 30	9.1	–	–
C[C@@]12CCC[C@]3(C)c4cc(=O)occ4[C@H](O)[C@@H](OC1=O)[C@@H]23 [compound 12, oidiolactone L]	> 5e-06	–	> 5e-06	–	–	> 30	> 25	–	–	inactive	–
C[C@]12CCC[C@](C)(C(=O)O)[C@@H]1C=C[C@]1(O)COC(=O)C[C@H]21 [compound 13, oidiolactone E]	> 5e-06	–	> 5e-06	–	–	–	> 25	–	–	–	–
C=C1C(O)C[C@@H]2[C@](C)(CCC[C@]2(C)C(=O)O)[C@H]1CC(=O)O (stereo partly drawn) [compound 14, LL-Z1271β]	> 5e-06	–	> 5e-06	–	–	> 30	> 25	–	–	–	–
C[C@@H]1CCC2CC(=O)C[C@@H](O)CC/C=C/C=C\CC[C@H](C)OC(=O)[C@@H]3O[B-]45O[C@@H](C(=O)O[C@@H](C)CC/C=C\C=C\CC[C@H](O)CC(=O)CC6CC[C@@H](C)[C@]3(O6)O4)[C@@]1(O2)O5 [tartrolon E, reference compound]	–	–	–	–	–	–	–	–	–	–	completely inhibited parasite invasion
